We go through 17 compounds from US20230183219A1, “CONDENSED SUBSTITUTED HYDROPYRROLES AS ANTAGONISTS OF THE MUSCARINIC ACETYLCHOLINE RECEPTOR M4” (Vanderbilt University, priority 2020, published 2023).

The assay addresses T1, Human M4 (Homo sapiens, UniProt P08173).
T1 construct: Human or rat M4 cDNA, along with the chimeric G protein Gqi5, were transfected into Chinese hamster ovary (CHO-K1) cells; expressed in transfected cells; host or cells: CHO-K1 (Chinese hamster ovary, ATCC), stably co-expressing Gqi5
T1 sequence (P08173 1-479): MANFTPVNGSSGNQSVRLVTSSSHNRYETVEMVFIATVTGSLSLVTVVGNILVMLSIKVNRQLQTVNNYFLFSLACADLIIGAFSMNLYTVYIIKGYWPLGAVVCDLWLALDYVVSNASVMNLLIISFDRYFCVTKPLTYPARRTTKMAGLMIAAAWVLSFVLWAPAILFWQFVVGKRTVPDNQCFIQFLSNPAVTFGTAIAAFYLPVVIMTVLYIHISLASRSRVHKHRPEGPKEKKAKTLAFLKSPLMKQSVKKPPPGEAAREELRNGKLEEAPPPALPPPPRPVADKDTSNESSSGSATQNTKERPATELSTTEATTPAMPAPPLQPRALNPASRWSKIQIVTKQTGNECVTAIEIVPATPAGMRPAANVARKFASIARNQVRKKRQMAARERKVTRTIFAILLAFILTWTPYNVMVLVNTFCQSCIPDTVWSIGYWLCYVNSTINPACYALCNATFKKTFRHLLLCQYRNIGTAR
In words: mAChR M4 cell-based functional assay (calcium flux, decrease of EC80 acetylcholine response). The conditions noted are these: for remaining activity at 30 µM / Human M4 Emin: % ACh maximum at 30 μM; for remaining activity at 30 µM: read-out: Human M4 Emin; for IC50: M4/Gqi5/CHO-K1 cells, decrease of response to EC80 acetylcholine. The essentials: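 CHO-K1 cells stably co-expressing M4 and chimeric Gqi5, loaded with Fluo-4 AM; calcium flux read on FDSS. Compound added at 2 s, EC20 acetylcholine at 143 s, EC80 acetylcholine at 268 s. IC50 from concentration-dependent decrease of the EC80 response, four-parameter logistic fit; 10-point 1:3 titrations.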
Background: Calcium flux is commonly read through the fluorescence of an indicator in the cells.

Usually IC50 stands for the concentration that inhibits the measured activity by half. On to `COc1c(F)cc(-c2cc(C(F)(F)F)c(N[C@H]3C[C@@H]4CN(CC5CCOCC5)C[C@@H]4C3)nn2)cc1F` [Example 80, (3aR,5s,6aS)-N-(6-(3,5-difluoro-4-methoxyphenyl)-4-(trifluoromethyl)pyridazin-3-yl)-2-((tetrahydro-2H-pyran-4-yl)methyl)octahydro-cyclopenta[c]pyrrol-5-amine], for which the remaining activity at 30 µM came to 3% and the IC50 was determined as 170 nM.
For `Cn1cc2cc(-c3cc(C#N)c(N[C@H]4C[C@@H]5CN(CC6CCCOC6)C[C@@H]5C4)nn3)ccc2n1` (single isomer, unassigned) [Example 159], the “Human M4 Emin” value is on record as 10% and the IC50 is 11.5 nM.
Take `COc1cc(F)c(-c2cc(C(F)(F)F)c(N[C@H]3C[C@@H]4CN(CC5CCOCC5)C[C@@H]4C3)nn2)cc1F` [Example 78, (3aR,5s,6aS)-N-(6-(2,5-difluoro-4-methoxyphenyl)-4-(trifluoromethyl)pyridazin-3-yl)-2-((tetrahydro-2H-pyran-4-yl)methyl)octahydro-cyclopenta[c]pyrrol-5-amine]: the remaining activity at 30 µM turned out to be 3% and the IC50 came out at 172 nM.
As for `Cc1ccc(F)cc1-c1cc(C(F)(F)F)c(N[C@H]2C[C@@H]3CN(CC4(F)CCOCC4)C[C@@H]3C2)nn1` [Example 23, (3aR,5s,6aS)-N-(6-(5-fluoro-2-methylphenyl)-4-(trifluoromethyl)pyridazin-3-yl)-2-((4-fluorotetrahydro-2H-pyran-4-yl)methyl)octahydro-cyclopenta[c]pyrrol-5-amine], the remaining activity at 30 µM was 3% and the half-maximal inhibitory concentration (IC50) turned out to be 23.7 nM.
As for `Cn1cc2cc(-c3cc(C(F)(F)F)c(N[C@H]4C[C@@H]5CN(CC6COCCO6)C[C@@H]5C4)nn3)ccc2n1` (stereo partly drawn) [Example 20, (3aR,5s,6aS)-2-((1,4-dioxan-2-yl)methyl)-N-(6-(2-methyl-2H-indazol-5-yl)-4-(trifluoromethyl)pyridazin-3-yl)octahydro-cyclopenta[c]pyrrol-5-amine], the remaining activity at 30 µM amounted to 3% and the half-inhibitory concentration (IC50) came out at 25.1 nM.
As to `Fc1ccc(C(F)(F)F)c(-c2cc(C(F)(F)F)c(N[C@H]3C[C@@H]4CN(CC5CCOCC5)C[C@@H]4C3)nn2)c1` [Example 45, (3aR,5s,6aS)-N-(6-(5-fluoro-2-(trifluoromethyl)phenyl)-4-(trifluoromethyl)pyridazin-3-yl)-2-((tetrahydro-2H-pyran-4-yl)methyl)octahydro-cyclopenta[c]pyrrol-5-amine], the remaining activity at 30 µM came out at 3% and the IC50 is 35.3 nM.
Regarding `[2H][C@@]1(Nc2nnc(-c3ccc4nn(C)cc4c3)cc2C(F)(F)F)C[C@H]2CN(CC3CCOCC3)C[C@H]2C1` [Example 128, (3aR,5s,6aS)-N-(6-(2-methyl-2H-indazol-5-yl)-4-(trifluoro-methyl)pyridazin-3-yl)-2-((tetrahydro-2H-pyran-4-yl)methyl)octahydro-cyclopenta[c]pyrrol-5-d-5-amine], the remaining activity at 30 µM worked out at 3% and the IC50 was determined as 13.2 nM.
Take `Cc1ccc(F)cc1-c1cc(C#N)c(N[C@H]2C[C@@H]3CN(C[C@H]4CCOC4)C[C@@H]3C2)nn1` [Example 152, 6-(5-fluoro-2-methylphenyl)-3-(((3aR,5s,6aS)-2-(((R)-tetrahydrofuran-3-yl)methyl)octahydro-cyclopenta[c]pyrrol-5-yl)amino)pyridazine-4-carbonitrile]: the remaining activity at 30 µM is 6% and the IC50 was 14.9 nM.
As for `CC(C)Oc1cc(F)c(-c2cc(C(F)(F)F)c(N[C@H]3C[C@@H]4CN(CC5CCOCC5)C[C@@H]4C3)nn2)cc1F` [Example 97, (3aR,5s,6aS)-N-(6-(2,5-difluoro-4-isopropoxyphenyl)-4-(trifluoromethyl)pyridazin-3-yl)-2-((tetrahydro-2H-pyran-4-yl)methyl)octahydro-cyclopenta[c]pyrrol-5-amine], the remaining activity at 30 µM is 3% and the IC50 was 757 nM.
Consider `Cc1ccc(F)cc1-c1cc(C(F)(F)F)c(N[C@H]2C[C@@H]3CN(CC4CCCOC4)C[C@@H]3C2)nn1` (single isomer, unassigned) [Example 121], for which the “Human M4 Emin” value amounted to 3% and the IC50 was determined as 10.1 nM.
Regarding `Cc1cc(F)ccc1-c1cc(C(F)(F)F)c(N[C@H]2C[C@@H]3CN(CC4CCOCC4)C[C@@H]3C2)nn1` [Example 74, (3aR,5s,6aS)-N-(6-(4-fluoro-2-methylphenyl)-4-(trifluoromethyl)pyridazin-3-yl)-2-((tetrahydro-2H-pyran-4-yl)methyl)octahydro-cyclopenta[c]pyrrol-5-amine], the remaining activity at 30 µM turned out to be 3% and the IC50 came to 38.9 nM.
On to `Cc1cc(-c2cc(C(F)(F)F)c(N[C@H]3C[C@@H]4CN(CC5CCOCC5)C[C@@H]4C3)nn2)c(F)cc1F` [Example 92, (3aR,5s,6aS)-N-(6-(2,4-difluoro-5-methylphenyl)-4-(trifluoromethyl)pyridazin-3-yl)-2-((tetrahydro-2H-pyran-4-yl)methyl)octahydro-cyclopenta[c]pyrrol-5-amine], for which the remaining activity at 30 µM was 2% and the IC50 amounted to 338 nM.
The like results for `[2H]C([2H])(C1CCOCC1)N1C[C@H]2C[C@H](Nc3nnc(-c4cnn(C)c4)cc3C(F)(F)F)C[C@H]2C1` [Example 109, (3aR,5s,6aS)-N-(6-(1-methyl-1H-pyrazol-4-yl)-4-(trifluoro-methyl)pyridazin-3-yl)-2-((tetrahydro-2H-pyran-4-yl)methyl-d2)octahydro-cyclopenta[c]pyrrol-5-amine] were, in that order, 3% and 71.8 nM.
As to `Cn1ncc2cc(-c3cc(C(F)(F)F)c(N[C@H]4C[C@@H]5CN(CC6CCOCC6)C[C@@H]5C4)nn3)ccc21` [Example 75, (3aR,5s,6aS)-N-(6-(1-methyl-1H-indazol-5-yl)-4-(trifluoromethyl)pyridazin-3-yl)-2-((tetrahydro-2H-pyran-4-yl)methyl)octahydro-cyclopenta[c]pyrrol-5-amine], the remaining activity at 30 µM is 3% and the concentration for half-maximal inhibition (IC50) was 45.1 nM.
For `Fc1ccc(F)c(-c2cc(C(F)(F)F)c(N[C@H]3C[C@@H]4CN(C[C@@H]5COCCO5)C[C@@H]4C3)nn2)c1` [Example 69, (3aR,5s,6aS)-2-(((R)-1,4-dioxan-2-yl)methyl)-N-(6-(2,5-difluorophenyl)-4-(trifluoromethyl)pyridazin-3-yl)octahydro-cyclopenta[c]pyrrol-5-amine], the remaining activity at 30 µM is 3% and the 50% inhibitory concentration (IC50) stood at 242 nM.
The matching figures for `Cc1ccc(F)cc1-c1cc(C#N)c(N[C@H]2C[C@@H]3CN(C[C@H]4COCCO4)C[C@@H]3C2)nn1` [Example 149, 3-(((3aR,5s,6aS)-2-(((S)-1,4-dioxan-2-yl)methyl)octahydro-cyclopenta[c]pyrrol-5-yl)amino)-6-(5-fluoro-2-methylphenyl)pyridazine-4-carbonitrile]: 2% and 0.4 nM.
Turning to `FC(F)(F)c1cc(N2CCCC2)nnc1N[C@H]1C[C@@H]2CN(CC3CCOCC3)C[C@@H]2C1` [Example 142, (3aR,5s,6aS)-N-(6-(pyrrolidin-1-yl)-4-(trifluoro-methyl)pyridazin-3-yl)-2-((tetrahydro-2H-pyran-4-yl)methyl)octahydro-cyclopenta[c]pyrrol-5-amine], the remaining activity at 30 µM worked out at 2% and the half-maximal inhibitory concentration (IC50) worked out at 3 nM.
